The values below come from the METLIN SMRT retention time set (Domingo-Almenara et al. 2019).

This series can be described thus: gradient 5% acetonitrile 3 min, to 50% in 2 min, to 85% in 15 min, held 3 min, 100 µL/min. To be noted: column: Zorbax Extend-C18 2.1 x 50 mm; eluents: water / acetonitrile, 0.1% formic acid. A digest of the protocol:
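Over 3 months, pure standards in mixtures of ~100 molecules were run by HPLC coupled to a quadrupole time-of-flight mass spectrometer in positive and negative ionization mode. The column was a Zorbax Extend-C18 (2.1 × 50 mm, 1.8 μm) at 100 μL/min, eluted with water and acetonitrile each holding 0.1% formic acid, with 40 μL dead and 900 μL dwell volumes. Retention time was determined from adduct peaks chosen by software and checked manually.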
`CC(=O)c1ccc(NC(=O)C2CCCN(c3nc(C)nc4oc(C)c(C)c34)C2)cc1` (stereo not given) yielded an RP-LC retention time of 839 s.

For `CCOC(=O)CC1(NC(=O)N2CCc3c(c(C(=O)N4CCCC4)nn3C)C2)CCCCC1`, the RP-LC retention time was found to be 764 s.

Turning to `CCOC(=O)c1c(C)[nH]c(C(=O)N2CCC(CC(=O)N(C)Cc3ccco3)CC2)c1C`, the RP-LC retention time amounted to 765 s.

The molecule `CSc1ccc(NC(=O)NC2CCN(c3ccc(F)c(C)c3)C2=O)cc1` (stereo not given) yielded an RP-LC retention time of 873 s.

In turn, `COc1ccc(-c2nn3c(CSc4ccccc4)nnc3s2)cc1OC` had an RP-LC retention time of 882 s.

Molecule `CCOc1ccc(CN2CCC3(CC2)CC(O)CCO3)cc1OC` (stereo not given) showed an RP-LC retention time of 583 s.

In turn, `COc1ccc(-c2coc3cc(OCC(=O)O)ccc3c2=O)cc1OC` had an RP-LC retention time of 703 s.

For the molecule `Cn1nc(-c2nnc(-c3ccc(F)cc3)o2)c2c1CCN(S(=O)(=O)Cc1ccccc1)C2`, the RP-LC retention time amounted to 999 s.

As for `Cc1ccc(C(=O)N2CCCCC2c2nc(-c3cccnc3)no2)cn1` (stereo not given), the RP-LC retention time came to 641 s.

`COc1c(OP2(=S)OCC(C)(C)CO2)cnn(C2CCCCC2)c1=O` showed an RP-LC retention time of 1190 s.

`COc1ccc(C(C)NC(=O)c2cc(-c3ccccc3)cn2C)cc1OC` (stereo not given) came in with an RP-LC retention time of 963 s.

`N#Cc1cccc(NC(=O)c2cc(C3CC3)n3nccc3n2)c1` had an RP-LC retention time of 942 s.

With `Cc1oc(-c2ccc(NC(=O)c3ccco3)cc2)nc1Cn1cccn1`, the RP-LC retention time came out at 759 s.

In turn, `O=C(Nc1nc(-c2ccccc2)cs1)c1ccc(F)cc1` came in with an RP-LC retention time of 995 s.

The molecule `O=C(CCc1ccc2c(c1)CNCCO2)NCC1CC1` yielded an RP-LC retention time of 574 s.

For `CCOC(=O)c1nnn(-c2ccccc2OCC)c1C(=O)OCC`, the RP-LC retention time stood at 970 s.

`CSc1cccc(NC(=O)C2CCCN(C(=O)c3cc(-c4ccncc4)n[nH]3)C2)c1` (stereo not given) gave an RP-LC retention time of 645 s.

Molecule `Cc1nc(-n2c(C)ccc2C)sc1C(=O)NC1CC1` returned an RP-LC retention time of 850 s.

In turn, `NC(=O)C1CCN(c2ncnc3c2oc2ccccc23)CC1` showed an RP-LC retention time of 584 s.

In turn, `COC(=O)c1c(C)[nH]c(C(=O)N2CCC(CC(=O)NCCC3=CCCCC3)CC2)c1C` yielded an RP-LC retention time of 787 s.

On to `CCCS(=O)(=O)N1CCC(c2noc(-c3ccccc3)n2)C1` (stereo not given), for which the RP-LC retention time turned out to be 933 s.

In turn, `O=S(=O)(NCC#CCN1CCc2ccccc2C1)c1cccs1` displayed an RP-LC retention time of 558 s.

With `CCc1nn2c(CNC(=O)c3ccccc3)c(-c3ccccc3)nc2s1`, the RP-LC retention time came to 870 s.

For `CCc1ccc(-c2noc(Cn3c(=O)n(-c4ccc(F)cc4)c(=O)c4sccc43)n2)cc1`, the RP-LC retention time came out at 1090 s.

In turn, `CCN1CCn2cc(S(=O)(=O)Nc3ccc(C)cc3)cc2C1=O` registered an RP-LC retention time of 723 s.

`CC(NC(=O)CCCc1ccccc1)C(=O)N1CCN(c2ccccn2)CC1` (stereo not given) displayed an RP-LC retention time of 626 s.

For the molecule `N#CC1=CN(c2cccc(C(F)(F)F)c2)c2ccccc2S1(=O)=O`, the RP-LC retention time was 930 s.

As for `O=C(Nc1nnc(-c2ccc(C(F)(F)F)cc2)o1)C1CC1`, the RP-LC retention time came to 714 s.

For `COc1ccc(-n2nc3c(N4CCCC(C(=O)NCc5cccs5)C4)nnc(C)c3c2C)cc1` (stereo not given), the RP-LC retention time stood at 724 s.

For the molecule `Cc1ccc(NC(=O)C2CCCN(S(=O)(=O)c3cn(C(C)C)cn3)C2)c(Cl)c1` (stereo not given), the RP-LC retention time stood at 834 s.

As to `O=C(NCc1ccc2c(c1)OCO2)C1CCN(C(=O)C2Sc3ccccc3NC2=O)CC1` (stereo not given), the RP-LC retention time is 703 s.

As to `CCOc1cc(-c2ccccc2)nc2ccc(NC(=O)c3cccs3)cc12`, the RP-LC retention time came to 754 s.

In turn, `CCC(C)NC(=O)c1c(C)sc2ccn(C)c(=O)c12` (stereo not given) came in with an RP-LC retention time of 654 s.

Regarding `COc1ccc(Cl)cc1NC(=O)c1cc(C(C)C)n2nccc2n1`, the RP-LC retention time turned out to be 1310 s.

In the case of `CCOC(=O)C1CCN(C(=O)c2ccc3c(c2)NC(=O)C2CCCCN32)CC1` (stereo not given), the RP-LC retention time was 554 s.

On to `COc1cc([N+](=O)[O-])ccc1NC(=O)c1ccccc1S(C)(=O)=O`, for which the RP-LC retention time amounted to 749 s.

`CC(=O)c1cccc(NC(=O)Cn2cnc3nc4c(cc3c2=O)CCCC4)c1` displayed an RP-LC retention time of 674 s.

On to `Cc1c(C(=O)N2CCCC2)cnn1-c1ccc(-c2nc(C3CC3)no2)cn1`, for which the RP-LC retention time turned out to be 877 s.

The molecule `O=C(Cn1c(=O)c(=O)n(Cc2ccc(Cl)cc2)c2ccccc21)N1CCN(c2ccccn2)CC1` had an RP-LC retention time of 654 s.

In turn, `CCN(CC)C(=O)c1ccc(-c2nc3cc(NS(=O)(=O)c4ccccc4)ccc3n2C)cc1` displayed an RP-LC retention time of 671 s.

`COCCn1nnnc1C1CC2(CCOCC2)C(=O)N1Cc1ccc(C(F)(F)F)cc1` (stereo not given) registered an RP-LC retention time of 797 s.

`Cc1nc(C)c(C(=O)N2CCCCCCN(C)C(=O)[C@@H]3CCC[C@@H]32)s1` had an RP-LC retention time of 728 s.

`O=C(NCC1CCCCC1)C1CCN(C(=O)c2cc3ccsc3n2Cc2ccc(Cl)cc2)CC1` showed an RP-LC retention time of 1170 s.

`Cc1ccc(CNC(=O)c2ccc(-c3nnc4ccc(NC(=O)C5CCC5)cn34)cc2)cc1` registered an RP-LC retention time of 869 s.

`O=C(CC1CCCC1)N1CCN(c2nc(CN3CCCCC3)cs2)CC1` showed an RP-LC retention time of 642 s.

In turn, `COc1ccc(CNC(=O)C2(C)CCCN(S(=O)(=O)c3ccc(Cl)cc3)C2)cc1` (stereo not given) returned an RP-LC retention time of 981 s.

Turning to `O=C(C1CCN(c2nc3cccnc3s2)CC1)N1CCCCC1`, the RP-LC retention time stood at 713 s.

The molecule `Cc1ncc([N+](=O)[O-])n1CC(C)O` (stereo not given) showed an RP-LC retention time of 609 s.

With `O=C(Nc1ccc(-c2nc(-c3ccc(F)cc3)no2)cc1)c1cccs1`, the RP-LC retention time was determined as 1170 s.

In turn, `COc1ccc(C(=O)Nc2cc(-c3cccnc3)no2)c(OC)c1` came in with an RP-LC retention time of 802 s.

Molecule `Cc1noc(C)c1-c1ccc(S(=O)(=O)N2CCN(c3cccc(Cl)c3)CC2)cc1` registered an RP-LC retention time of 1160 s.

The molecule `COCCc1noc(-c2ccc(=O)n(CC(=O)Nc3cc(F)ccc3C)c2)n1` came in with an RP-LC retention time of 704 s.

The molecule `CCNC(=O)c1[nH]c2ccccc2c1N1CCCC1=O` had an RP-LC retention time of 657 s.

Take `O=C(NC1CCCCC1)c1ccc2ncnc(N3CCCC3)c2c1`: the RP-LC retention time stood at 636 s.

`COc1ccc(NC(=O)c2cnc3c(c2)c(=O)n(C)c(=O)n3-c2ccc(C)cc2)cc1F` registered an RP-LC retention time of 849 s.

In turn, `COc1ccc(NC(=O)C2CC(=O)N(c3ccc4oc(C)nc4c3)C2)cc1F` (stereo not given) registered an RP-LC retention time of 733 s.

On to `CCn1ccc(C(=O)NCc2c(-c3ccccc3)nc3sc(C)nn23)n1`, for which the RP-LC retention time came out at 743 s.

Molecule `CCOc1ccc(S(=O)(=O)N2CCC[C@@H]2C(=O)NCc2csc(C)n2)cc1` came in with an RP-LC retention time of 743 s.

Take `Cc1c2cnn(CC(=O)NCC3CCCO3)c(=O)c2c(C)n1Cc1ccccc1F` (stereo not given): the RP-LC retention time worked out at 747 s.

Consider `COc1ccc(CCC(=O)NC(C)C(=O)Nc2nc3ccccc3[nH]2)cc1` (stereo not given), for which the RP-LC retention time was found to be 656 s.

`CC1CCCN(Cc2nc(Cn3ccn4nc(-c5ccccc5)cc4c3=O)no2)C1` (stereo not given) showed an RP-LC retention time of 654 s.

In the case of `COc1ccc(OC)c(NC(=O)C2C(=O)NC3(C)CC2c2ccccc2O3)c1` (stereo not given), the RP-LC retention time worked out at 875 s.

As to `O=C(CN1C(=O)CCCc2cc(S(=O)(=O)N3CCCC3)ccc21)Nc1ccc(F)cc1Cl`, the RP-LC retention time stood at 857 s.

`Cn1nc(N2CCCC(NS(=O)(=O)c3cccc4cccnc34)C2)ccc1=O` (stereo not given): the RP-LC retention time worked out at 698 s.

`COc1ccc(-c2cnc(NC(=O)[C@H]3CCCCN3S(=O)(=O)c3ccc(C)cc3)s2)cc1`: the RP-LC retention time is 1270 s.

In the case of `CO[C@H]1C(=O)N(C2CCN(S(=O)(=O)Cc3ccccc3)CC2)[C@H]1c1ccncc1`, the RP-LC retention time is 632 s.

Consider `COc1ccc(NC(=O)NC2CCN(c3ccc(F)cc3)C2=O)cc1OC` (stereo not given), for which the RP-LC retention time is 722 s.

`CC(C)NC(=O)c1ccc(OCC2CCN(C(=O)c3ccc(N(C)C)cc3)CC2)cc1`: the RP-LC retention time was determined as 816 s.

Take `COc1ccc(-c2nnc3sc(-c4cccnc4)nn23)cc1OC`: the RP-LC retention time turned out to be 695 s.

With `Cc1ccc(-c2ncccc2CNS(=O)(=O)c2ccc(Cl)s2)cc1`, the RP-LC retention time came out at 780 s.

`O=C(NCc1csc(C2CCCN(C(=O)c3ccccc3F)C2)n1)C1CCC1` (stereo not given) registered an RP-LC retention time of 727 s.

`Cc1ccc(C)c(NC(=O)Cn2nc3c(Oc4ccc(C(C)C)cc4)nccn3c2=O)c1` displayed an RP-LC retention time of 1080 s.

Consider `Cc1cc(C)n(CCN2CCN(C(=O)C3CCC3)CC2)n1`, for which the RP-LC retention time turned out to be 546 s.

As for `CCCN1C(=O)C2CCC(=O)N2c2ccc(C(=O)NC(C)(C)CC)cc21` (stereo not given), the RP-LC retention time turned out to be 812 s.

On to `Cc1cc(NCCN(C)C)n2nc(-c3ccccc3)c(C)c2n1`, for which the RP-LC retention time was 572 s.

With `CCn1cc(C(=O)Nc2ccccc2F)c2cccnc21`, the RP-LC retention time is 812 s.

`O=C(CC1COc2ccccc2NC1=O)NCCc1cccs1` (stereo not given) yielded an RP-LC retention time of 689 s.

Take `CCOC(=O)CNC(=O)NC(C(=O)N1CCc2ccccc21)C(C)C` (stereo not given): the RP-LC retention time is 783 s.

`CCCN1C(=O)COc2ccc(-c3noc(-c4cccc(Br)c4)n3)cc21`: the RP-LC retention time came out at 1400 s.

Molecule `CC1CCCN(CCCNC(=O)Cn2c3ccccc3c3cnn(C)c(=O)c32)C1` (stereo not given) had an RP-LC retention time of 612 s.
